Assay results: patent US8802671B2, “Quinoline derivatives as antibacterial agents” (Janssen Pharmaceutica NV, priority 2005, dated 2014)
≈ marks a conversion by molar mass, not a printed value.

How the values were obtained:
[1] = tested on: Streptococcus mutans (ATCC33402); assay: Microtitre plate assay, IC90 determination; format: cell-based; settings: 90% inhibitory concentration for bacterial growth, read-out: IC90 SMU 33402
Protocol: (§1) The bacteria used in this study were grown overnight in flasks containing 100 ml Mueller-Hinton Broth (Becton Dickinson—cat. no. 275730) in sterile de-ionized water, with shaking, at 37° C. Stocks (0.5 ml/tube) were stored at −70° C. until use. Bacteria titrations were performed in microtiter plates and colony forming units (CFUs) were determined. In general, an inoculum level of approximately 100 CFUs was used for susceptibility testing.
(§2) Anti Bacterial Susceptibility Testing: IC90 Determination
(§3) Flat-bottom, sterile 96-well plastic microtiter plates were filled with 180 μl of sterile deionized water, supplemented with 0.25% BSA. Subsequently, stock solutions (7.8× final test concentration) of compounds were added in 45 μl volumes in column 2. Serial five-fold dilutions (45 μl in 180 μl) were made directly in the microtiter plates from column 2 to reach column 11. Untreated control samples with (column 1) and without (column 12) inoculum were included in each microtiter plate. Depending on the bacteria type, approximately 10 to 60 CFU per well of bacteria inoculum (100 TCID50), in a volume of 100 μl in 2.8× Mueller-Hinton broth medium, was added to the rows A to H, except column 12. The same volume of broth medium without inoculum was added to column 12 in row A to H. The cultures were incubated at 37° C. for 24 hours under a normal atmosphere (incubator with open air valve and continuous ventilation). At the end of incubation, one day after inoculation, the bacterial growth was quantitated fluorometrically. Therefore resazurin (0.6 mg/ml) was added in a volume of 20 μl to all wells 3 hours after inoculation, and the plates were re-incubated overnight. A change in colour from blue to pink indicated the growth of bacteria. The fluorescence was read in a computer-controlled fluorometer (Cytofluor Biosearch) at an excitation wavelength of 530 nm and an emission wavelength of 590 nm. The % growth inhibition achieved by the compounds was calculated according to standard methods. The IC90 (expressed in μg/ml) was defined as the 90% inhibitory concentration for bacterial growth.

[2] = tested on: Pseudomonas aeruginosa (ATCC27853); assay: Microtitre plate assay, IC90 determination; format: cell-based; settings: 90% inhibitory concentration for bacterial growth; for IC90: read-out: IC90 PAE 27853
Protocol: as §1, §2, §3

[3] = tested on: Enterococcus faecalis (ATCC29212); assay: Microtitre plate assay, IC90 determination; format: cell-based; settings: 90% inhibitory concentration for bacterial growth; for IC90: read-out: IC90 EFA 29212
Protocol: as §1, §2, §3

[4] = tested on: Listeria monocytogenes (ATCC49594); assay: Microtitre plate assay, IC90 determination; format: cell-based; settings: 90% inhibitory concentration for bacterial growth; for IC90: read-out: IC90 LMO 49594
Protocol: as §1, §2, §3

[5] = tested on: methicilline resistant Staphylococcus aureus (MRSA) (a clinical isolate from the University of Antwerp); assay: Microtitre plate assay, IC90 determination; format: cell-based; settings: 90% inhibitory concentration for bacterial growth; for IC90: Staphylococcus aureus, MRSA, read-out: IC90 STA RMETHIC
Protocol: as §1, §2, §3

[6] = tested on: Streptococcus pneumoniae (ATCC6305); assay: Microtitre plate assay, IC90 determination; format: cell-based; settings: 90% inhibitory concentration for bacterial growth; for IC90: read-out: IC90 SPN 6305
Protocol: as §1, §2, §3

[7] = tested on: Staphylococcus aureus (ATCC25923); assay: Microtitre plate assay, IC90 determination; format: cell-based; settings: for IC90: Staphylococcus aureus, ATCC25923, 90% inhibitory concentration for bacterial growth, read-out: IC90 STA 25923; for IC90 STA 25923: 90% inhibitory concentration for bacterial growth
Protocol: as §1, §2, §3

[8] = tested on: Streptococcus pyogens (ATCC8668); assay: Microtitre plate assay, IC90 determination; format: cell-based; settings: for IC90: Streptococcus, ATCC8668, 90% inhibitory concentration for bacterial growth, read-out: IC90 SPY 8668; for IC90 SPY 8668: 90% inhibitory concentration for bacterial growth
Protocol: as §1, §2, §3

[9] = tested on: Staphylococcus aureus (ATCC29213); assay: Microtitre plate assay, IC90 determination; format: cell-based; settings: 90% inhibitory concentration for bacterial growth, 37° C., resazurin fluorescence; for IC90: Staphylococcus aureus, ATCC29213, 24 h, read-out: IC90 STA 29213; for IC90 STA 29213: 24 hours
Protocol: as §1, §2, §3

[10] = tested on: Bacillus subtilis (ATCC43639); assay: Microtitre plate assay, IC90 determination; format: cell-based; settings: 90% inhibitory concentration for bacterial growth; for IC90: read-out: IC90 BSU 43639
Protocol: as §1, §2, §3

[11] = tested on: Enterococcus faecalis (ATCC14506); assay: Microtitre plate assay, IC90 determination; format: cell-based; settings: 90% inhibitory concentration for bacterial growth; for IC90: read-out: IC90 EFA 14506
Protocol: as §1, §2, §3

Compound `CN(C)CC(c1cccc(F)c1)C(O)C(Cc1ccccc1)c1ccc2cc(Br)ccc2n1` (single isomer, unassigned) [Compound 1] has an IC90 [1] of 10.1 µg/mL (≈ 19.9 µM), an IC90 [2] of 12.8 µg/mL (≈ 25.2 µM) and an IC90 [3] of 12.8 µg/mL (≈ 25.2 µM). It also gave an IC90 [4] of 10.1 µg/mL (≈ 19.9 µM), an IC90 [5] of 12.8 µg/mL (≈ 25.2 µM) and an IC90 [6] of 12.8 µg/mL (≈ 25.2 µM). The IC90 [7] was 12.8 µg/mL (≈ 25.2 µM), the IC90 [8] was 10.1 µg/mL (≈ 19.9 µM) and the IC90 [9] was 12.8 µg/mL (≈ 25.2 µM). The melting point was 136 °C.

In the case of `CN(C)CC(c1cccc2ccccc12)C(O)C(Cc1ccccc1)c1ccc2cc(Br)ccc2n1` (single isomer, unassigned) [Compound 2], the IC90 [10] is reported as 13.6 µg/mL (≈ 25.2 µM), the IC90 [1] is reported as 10.8 µg/mL (≈ 20 µM) and the IC90 [2] is reported as 10.8 µg/mL (≈ 20 µM). It also gave an IC90 [3] of 10.8 µg/mL (≈ 20 µM), an IC90 [4] of 10.8 µg/mL (≈ 20 µM) and an IC90 [5] of 13.6 µg/mL (≈ 25.2 µM). It also gave an IC90 [6] of 13.6 µg/mL (≈ 25.2 µM), an IC90 [11] of 12.1 µg/mL (≈ 22.4 µM) and an IC90 [7] of 13.6 µg/mL (≈ 25.2 µM). The IC90 [8] was 10.8 µg/mL (≈ 20 µM), the IC90 [9] was 12.1 µg/mL (≈ 22.4 µM) and the melting point was 143 °C.

`CN(C)CC(c1cccc2ccccc12)C(O)C(Cc1ccccc1)c1ccc2cc(Br)ccc2n1` (single isomer, unassigned) [Compound 3] gave a melting point of 69 °C.

`CN(C)CC(c1cccc(F)c1)C(O)C(Cc1ccccc1)c1ccc2cc(Br)ccc2n1` (single isomer, unassigned) [Compound 4] gave a melting point of 179 °C.

For `CCc1cc2cc(C(c3ccccc3)C(O)(CCN(C)C)c3cccc4ccccc34)ccc2nc1Cl` (single isomer, unassigned) [Compound 5], the “IC90 BSU 43639” value [10] was 12.8 µg/mL (≈ 25.1 µM), the “IC90 PAE 27853” value [2] was 12.8 µg/mL (≈ 25.1 µM) and the “IC90 EFA 29212” value [3] was 12.8 µg/mL (≈ 25.1 µM). For the same compound, the “IC90 LMO 49594” value [4] was 12.8 µg/mL (≈ 25.1 µM), the “IC90 STA RMETHIC” value [5] was 12.8 µg/mL (≈ 25.1 µM) and the “IC90 SPN 6305” value [6] was 12.8 µg/mL (≈ 25.1 µM). The “IC90 EFA 14506” value [11] was 11.4 µg/mL (≈ 22.4 µM), the “IC90 STA 25923” value [7] was 5.1 µg/mL (≈ 10 µM) and the “IC90 SPY 8668” value [8] was 12.8 µg/mL (≈ 25.1 µM). The “IC90 STA 29213” value [9] was 12.8 µg/mL (≈ 25.1 µM).

`CCc1cc2cc(C(c3ccccc3)C(O)(CCN(C)C)c3cccc4ccccc34)ccc2nc1Cl` (single isomer, unassigned) [Compound 6] showed an IC90 [10] of 12.8 µg/mL (≈ 25.1 µM), an IC90 [2] of 12.8 µg/mL (≈ 25.1 µM) and an IC90 [3] of 12.8 µg/mL (≈ 25.1 µM). The IC90 [4] was 12.8 µg/mL (≈ 25.1 µM), the “IC90 STA RMETHIC” value [5] was 50.9 µg/mL (≈ 100 µM) and the IC90 [6] was 12.8 µg/mL (≈ 25.1 µM). The IC90 [11] was 11.4 µg/mL (≈ 22.4 µM), the “IC90 STA 25923” value [7] was 12.8 µg/mL (≈ 25.1 µM) and the IC90 [8] was 12.8 µg/mL (≈ 25.1 µM). The IC90 [9] was 12.8 µg/mL (≈ 25.1 µM).

In the case of `CCc1cc2ccc(C(c3ccccc3)C(O)(CCN(C)C)c3cc(F)cc(F)c3)cc2nc1Cl` (single isomer, unassigned) [Compound 9], the “IC90 BSU 43639” value [10] is reported as 12.4 µg/mL (≈ 25 µM), the IC90 [1] is reported as 9.9 µg/mL (≈ 20 µM) and the “IC90 PAE 27853” value [2] is reported as 9.9 µg/mL (≈ 20 µM). The “IC90 EFA 29212” value [3] was 12.4 µg/mL (≈ 25 µM), the “IC90 LMO 49594” value [4] was 12.4 µg/mL (≈ 25 µM) and the “IC90 STA RMETHIC” value [5] was 12.4 µg/mL (≈ 25 µM). The “IC90 SPN 6305” value [6] was 12.4 µg/mL (≈ 25 µM), the IC90 [11] was 11.1 µg/mL (≈ 22.4 µM) and the “IC90 STA 25923” value [7] was 12.4 µg/mL (≈ 25 µM). The “IC90 SPY 8668” value [8] was 9.9 µg/mL (≈ 20 µM) and the “IC90 STA 29213” value [9] was 11.1 µg/mL (≈ 22.4 µM).

In the case of `CCc1cc2ccc(C(c3ccccc3)C(O)(CCN(C)C)c3cc(F)cc(F)c3)cc2nc1Cl` (single isomer, unassigned) [Compound 10], the IC90 [10] is reported as 12.4 µg/mL (≈ 25 µM), the IC90 [2] is reported as 9.9 µg/mL (≈ 20 µM) and the IC90 [3] is reported as 12.4 µg/mL (≈ 25 µM). It also gave an IC90 [4] of 12.4 µg/mL (≈ 25 µM), an IC90 [5] of 12.4 µg/mL (≈ 25 µM) and an IC90 [6] of 12.4 µg/mL (≈ 25 µM). For the same compound, the IC90 [7] was 12.4 µg/mL (≈ 25 µM), the IC90 [8] was 12.4 µg/mL (≈ 25 µM) and the IC90 [9] was 12.4 µg/mL (≈ 25 µM).

Compound `CCc1cc2cc(C(c3ccccc3)C(O)(CCN(C)C)c3cc(F)cc(F)c3)ccc2nc1Cl` (single isomer, unassigned) [Compound 11] has an IC90 [10] of 39.3 µg/mL (≈ 79.4 µM), an IC90 [2] of 12.4 µg/mL (≈ 25 µM) and an IC90 [3] of 12.4 µg/mL (≈ 25 µM). For the same compound, the IC90 [4] was 7.9 µg/mL (≈ 16 µM), the IC90 [5] was 49.5 µg/mL (≈ 100 µM) and the IC90 [6] was 12.4 µg/mL (≈ 25 µM). For the same compound, the IC90 [7] was 49.5 µg/mL (≈ 100 µM), the IC90 [8] was 12.4 µg/mL (≈ 25 µM) and the IC90 [9] was 12.4 µg/mL (≈ 25 µM).

With `CCc1cc2cc(C(c3ccccc3)C(O)(CCCCN(C)C)c3ccccc3)ccc2nc1OC` (single isomer, unassigned) [Compound 12] the IC90 [6] was 1.53 µg/mL (≈ 3.17 µM) and the IC90 [9] was 1.53 µg/mL (≈ 3.17 µM).

With `COc1nc2ccc(C(c3ccccc3)C(O)(CCCCN(C)C)c3ccccc3)cc2cc1C` (single isomer, unassigned) [Compound 13] the IC90 [6] was 7.43 µg/mL (≈ 15.9 µM) and the IC90 [9] was 7.43 µg/mL (≈ 15.9 µM).
